Test results taken from patent publication US10906880B2, “Kind of isothiazole oxime ether-containing strobilurin derivatives and its preparation methods and application” (priority 2016, dated 2021).
Where “and” joins values, the source holds several entries; their conditions need not be identical. Identical values can stand only once. Like-named read-outs stand apart in the source and are kept apart here.

Legend:
Gibberella zeae = experiment: microbe, parasite or virus in culture; format: cell-based; settings: for Fungicidal activity inhibition, GZ: 50 μg/mL, G. zeae; for inhibition at 50 µg/mL: Fusarium graminearum, read-out: Fungicidal activity inhibition, GZ, 50 μg/mL, G. zeae
TMV [1] = experiment: Anti-TMV activity on tobacco, curative mode; format: in vivo, tobacco mosaic virus; settings: 100 μg/mL, tobacco; for inhibition at 100 µg/mL: Tobacco mosaic virus, read-out: Anti-TMV activity inhibition, Curative effect
TMV [2] = experiment: Anti-TMV activity on tobacco, inactivation mode; format: in vivo, tobacco mosaic virus; settings: 100 μg/mL; for inhibition at 100 µg/mL: Tobacco mosaic virus, read-out: Anti-TMV activity inhibition, Inactivation effect
TMV [3] = experiment: Anti-TMV activity on tobacco, protection mode; format: in vivo, tobacco mosaic virus; settings: 100 μg/mL; for inhibition at 100 µg/mL: Tobacco mosaic virus, read-out: Anti-TMV activity inhibition, Protection effect
TMV [4] = experiment: Anti-TMV activity on tobacco, induction mode (systemic acquired resistance); format: in vivo, tobacco mosaic virus; settings: 100 μg/mL; for inhibition at 100 µg/mL: Tobacco mosaic virus, read-out: Anti-TMV activity inhibition, Induction effect
Alternaria solani = experiment: Fungicide activity, mycelial growth inhibition on PDA plate; format: cell-based; settings: Alternaria solani, read-out: Fungicidal activity inhibition, AS
Cercospora arachidicola = experiment: as above; format: cell-based; settings: Mycosphaerella arachidis, read-out: Fungicidal activity inhibition, CA
Physalospora piricola = experiment: as above; format: cell-based; settings: 50 μg/mL, P. piricola; read-out: Fungicidal activity inhibition, PP
Botrytis cinerea = experiment: as above; format: cell-based; settings: Botrytis cinerea, read-out: Fungicidal activity inhibition, BC
Sclerotinia sclerotiorum = experiment: as above; format: cell-based; settings: Sclerotinia sclerotiorum, read-out: Fungicidal activity inhibition, SS
Rhizoctonia cerealis = experiment: as above; format: cell-based; settings: Ceratobasidium cereale, read-out: Fungicidal activity inhibition, RC
Pellicularia sasakii = experiment: as above; format: cell-based; settings: 50 μg/mL, P. sasakii; read-out: Fungicidal activity inhibition, PS
[5] = test system: Phytophthora infestans (Mont) de Bary; experiment: microbe, parasite or virus in culture; format: cell-based; settings: for Fungicidal activity inhibition, PI: 50 μg/mL, P. infestans (Mont.) de Bary; for inhibition at 50 µg/mL: Phytophthora infestans, read-out: Fungicidal activity inhibition, PI, 50 μg/mL, P. infestans (Mont.) de Bary

| SMILES | Fungicidal activity inhibition, GZ (Gibberella zeae) | inhibition at 100 µg/mL (TMV [1]) [%] | inhibition at 100 µg/mL (TMV [2]) [%] | inhibition at 100 µg/mL (TMV [3]) [%] | inhibition at 100 µg/mL (TMV [4]) [%] | inhibition at 50 µg/mL (Alternaria solani; 50 μg/mL, A. solani) [%] | inhibition at 50 µg/mL (Cercospora arachidicola; 50 μg/mL, C. arachidicola) [%] | inhibition at 50 µg/mL (Physalospora piricola) [%] | inhibition at 50 µg/mL (Botrytis cinerea; 50 μg/mL, B. cinerea) [%] | inhibition at 50 µg/mL (Botrytis cinerea) [%] | inhibition at 50 µg/mL (Sclerotinia sclerotiorum; 50 μg/mL, S. sclerotiorum) [%] | inhibition at 50 µg/mL (Rhizoctonia cerealis; 50 μg/mL, R. cerealis) [%] | inhibition at 50 µg/mL (Rhizoctonia cerealis) [%] | inhibition at 50 µg/mL (Pellicularia sasakii) [%] | melting point [°C] | inhibition at 50 µg/mL (Alternaria solani) [%] | inhibition at 50 µg/mL (Gibberella zeae) [%] | inhibition at 50 µg/mL (Sclerotinia sclerotiorum) [%] | inhibition at 50 µg/mL [5] [%] | also measured |
| --- | --- | --- | --- | --- | --- | --- | --- | --- | --- | --- | --- | --- | --- | --- | --- | --- | --- | --- | --- | --- |
| CNC(=O)/C(=N/OC)c1cc(C)c(C)cc1CO/N=C(\C)c1cc(Cl)ns1 [CL04-00, reference compound] | 29.63% and 50.00% | 27.3 ± 1.24 | 20.7 ± 2.1 | 26.3 ± 2.47 | 20.3 ± 2.16 |  |  |  |  |  |  |  |  |  |  |  |  |  |  | Anti-TMV activity inhibition, Curative effect (TMV [1]): 26.39 ± 1.22%; Anti-TMV activity inhibition, Inactivation effect (TMV [2]): 19.68 ± 1.10%; Anti-TMV activity inhibition, Protection effect (TMV [3]): 25.30 ± 1.47%; Anti-TMV activity inhibition, Induction effect (TMV [4]): 19.34 ± 1.14% |
| C#CCNC(=O)/C(=N/OC)c1ccccc1CO/N=C(\C)c1snc(Cl)c1Cl [CL04-22B] | 100% | 1.52 ± 0.62 | > 30 | > 40 |  | 28.6 | 35.7 | 49.1 | 51.9 | > 45 | 100 | 86.9 | > 50 | 73.3 | 120 to 122 |  |  |  |  | inhibition at 50 µg/mL (Cercospora arachidicola): > 30% |
| CNC(=O)/C(=N/OC)c1ccccc1CO/N=C(\C)c1snc(Cl)c1Cl [CL04-22D] | 100% | 32.8 ± 3.36 | 4.44 ± 0.85 | > 40 |  | 47.5 | 87.5 | 80.8 | 100 |  | 100 | 100 |  | 89.2 | 79 to 81 | > 30 |  |  |  | Fungicidal activity inhibition, PI [5]: 100% |
| CO/N=C(/C(=O)N[C@@H](C)CSC)c1ccccc1CO/N=C(\C)c1snc(Cl)c1Cl [CL04-22F] |  | 1.52 ± 0.62 | 0 | 23.8 ± 3.42 |  | 16.4 | 12.5 | 32.8 | 45.5 | > 45 | 52.9 | 76 | > 50 | 15.2 | 35 to 37 |  | > 30 | > 40 | 17.1 |  |
| CO/N=C(/C(=O)NCC(F)F)c1ccccc1CO/N=C(\N)c1snc(Cl)c1Cl [CL04-24] |  | 15 ± 3.08 | 27.3 ± 6.56 | 36.8 ± 5.5 | > 30 | 12.7 | 16.7 | 39.5 | 37.5 |  | 52.9 | 62 | > 50 | 24.2 | 118 to 120 |  | > 30 |  | 22.9 |  |
| CNC(=O)/C(=N/OC)c1ccccc1CO/N=C(\N)c1snc(Cl)c1Cl [CL04-25C] | 100% | 14.7 ± 4.84 | 0 | > 40 |  | 34.4 | 44 | 40.4 | 57.9 | > 45 | 66.7 | 100 |  | 83.8 | 122 to 124 | > 30 |  | > 40 |  | inhibition at 50 µg/mL (Cercospora arachidicola): > 30%; Fungicidal activity inhibition, PI [5]: 100% |
| CO/N=C(/C(=O)NC(C)(C)CSC)c1ccccc1CO/N=C(\N)c1snc(Cl)c1Cl [CL04-25D] |  | > 30 | 0 | 21.1 ± 1.69 | 21.1 ± 3.69 | 16.4 | 12.5 | 27.7 | 39.3 |  | 52.9 | 62 |  | 15.2 | 28 to 30 |  | 21.2 | > 40 | 17.1 |  |
| CO/N=C(/C(=O)N[C@@H](C)CSC)c1ccccc1CO/N=C(\N)c1snc(Cl)c1Cl [CL04-25E] |  | 19.1 ± 6.56 | 0 | 26 ± 4.71 | 16 ± 7.71 | 9.09 | 16.7 | 10.9 | 35.7 |  | 52.9 | 54 | > 50 | 21.2 |  |  | > 30 | > 40 | 11.4 |  |
| CO/N=C(/C(=O)NCC(F)F)c1ccccc1CO/N=C(C)/C=C/c1snc(Cl)c1Cl [CL04-32A] |  | 1.52 ± 0.62 | > 30 | > 40 | > 30 | 34.4 | 36 | 29.8 | 52.6 | > 45 | 53.3 | 85.4 | > 50 | 35.1 | 98 to 100 | > 30 | > 30 | > 40 |  | inhibition at 50 µg/mL (Cercospora arachidicola): > 30% |
| CNC(=O)/C(=N/OC)c1ccccc1CO/N=C(C)/C=C/c1snc(Cl)c1Cl [CL04-32D] | 100% | 1.52 ± 0.62 |  | 39.1 ± 2.73 | > 30 | 54.1 | 84 | 64.9 | 84.2 | > 45 | 73.3 | 85.4 | > 50 | 89.2 | 137 to 139 | > 30 |  | > 40 |  | Fungicidal activity inhibition, PI [5]: 100% |
| CO/N=C(/C(=O)NC(C)(C)CSC)c1ccccc1CO/N=C(C)/C=C/c1snc(Cl)c1Cl [CL04-32E] |  | 1.52 ± 0.62 | 13.7 ± 0.55 | > 40 | > 70 | 5.45 | 12.5 | 39.5 | 32.1 |  | 41.2 | 58 |  | 15.2 |  |  | 24.2 |  | 11.4 |  |
